Results published in US7501429B2, “Pyrimidine compounds as anti-ictogenic and/or anti-epileptogenic agents” (Queen's University at Kingston, priority 2001, dated 2009).

What follows are compounds tested on pilocarpine induced-seizures (assay: Pilocarpine induced-seizure (PIS) model). Details: uracils in the Pilocarpine model; scale maximum = 4.
Format: in vivo
Method: Pilocarpine Induced-seizure (PIS) Model
All test compounds are normally dissolved in a mixture of saline (NaCl 0.9% by mass) and 10% DMSO. However, in case of solubility problems, the concentration of DMSO may be increased to a maximum of 50%. This biological test is performed following the procedure disclosed in PCT publication WO 98/40055 (Queen's University at Kingston).

Row | SMILES | Relative Activity (Maximum = 4)
1 | CCCCC#Cc1c[nH]c(=O)[nH]c1=O [Compound P18, 5-hex-1-ynyl-1H-pyrimidine-2,4-dione] | Active - +1
2 | O=c1cc[nH]c(=O)[nH]1 [Compound P1, 1H-pyrimidine-2,4-dione] | Active - +2
3 | O=c1[nH]cc(O)c(=O)[nH]1 [Compound P4, 5-hydroxy-1H-pyrimidine-2,4-dione] | Active - +2
4 | O=c1[nH]cc(CO)c(=O)[nH]1 [Compound P3, 5-hydroxymethyl-1H-pyrimidine-2,4-dione] | Active - +3
5 | Cc1[nH]c(=O)[nH]c(=O)c1Br [Compound P8, 5-bromo-6-methyl-1H-pyrimidine-2,4-dione] | Active - +2
6 | NN1C(=O)CCN(Cc2ccccc2)C1=O [Compound P38, 3-amino-1-benzyl-dihydro-pyrimidine-2,4-dione] | Active +2
7 | Cc1[nH]c(=O)[nH]c(=O)c1[N+](=O)[O-] [Compound P9, 6-methyl-5-nitro-1H-pyrimidine-2,4-dione] | Active - +2
8 | O=c1c(Br)cn(CC2CCCCC2)c(=O)n1CC1CCCCC1 [Compound P24, 5-bromo-1,3-bis-cyclohexylmethyl-1H-pyrimidine-2,4-dione] | Minimally Active
9 | O=c1[nH]cc(Br)c(=O)[nH]1 [Compound P5, 5-bromo-1H-pyrimidine-2,4-dione] | Active - +1
10 | CC(C)n1ccc(=O)n(C(C)C)c1=O [Compound P36, 1,3-diisopropyl-1H-pyrimidine-2,4-dione] | Active +2
11 | CCCCc1cc2c[nH]c(=O)nc2o1 [Compound P17, 6-butyl-3H-furo[2,3-d]pyrimidin-2-one] | Active - +1
12 | NC(=O)c1cnn(-c2cccc(N)c2)c1 [Compound P42, 1-(3-amino-phenyl)-1H-pyrazole-4-carboxylic acid amide] | Active +2
13 | Cc1c[nH]c(=O)[nH]c1=O [Compound P2, 5-methyl-1H-pyrimidine-2,4-dione] | Active - +2
14 | Cn1ccc(=O)[nH]c1=O [Compound P34, 1-methyl-1H-pyrimidine-2,4-dione] | Minimally Active
15 | Nc1c(C(=O)O)[nH]c(=O)[nH]c1=O [Compound P10, 5-amino-2,6-dioxo-1,2,3,6-tetrahydro-pyrimidine-4-carboxylic acid] | Minimally Active
16 | Cc1cc(=O)[nH]c(=O)[nH]1 [Compound P7, 6-methyl-1H-pyrimidine-2,4-dione] | Active - +3
17 | O=c1c(Cc2cn(Cc3ccccc3)c(=O)n(Cc3ccccc3)c2=O)cn(Cc2ccccc2)c(=O)n1Cc1ccccc1 [Compound P43] | Active +3
18 | CCC(C)n1cc(Br)c(=O)[nH]c1=O (stereo not drawn) [Compound P20, 5-bromo-1-sec-butyl-1H-pyrimidine-2,4-dione] | Active - +1

Row | SMILES | Relative Activity (Maximum = 4)
19 | Cn1cc([N+](=O)[O-])c(=O)n(C)c1=O [Compound P13, 1,3-dimethyl-5-nitro-1H-pyrimidine-2,4-dione] | Minimally Active
20 | Cc1cc(=O)n(Cc2ccc([N+](=O)[O-])cc2)c(=O)n1Cc1ccc([N+](=O)[O-])cc1 [Compound P33, 6-methyl-1,3-bis-(4-nitro-benzyl)-1H-pyrimidine-2,4-dione] | Active +2
21 | O=C(O)c1c[nH]c(=O)[nH]c1=O [Compound P12, 2,4-dioxo-1,2,3,4-tetrahydro-pyrimidine-5-carboxylic acid] | Active - +2
22 | O=c1[nH]c(=O)n(Cc2ccccc2)cc1Br [Compound P22, 1-benzyl-5-bromo-1H-pyrimidine-2,4-dione] | Active - +1
23 | O=c1[nH]c(=O)n(CC2CCCCC2)cc1Br [Compound P23, 5-bromo-1-cyclohexylmethyl-1H-pyrimidine-2,4-dione] | Minimally Active
24 | O=c1c(Br)cn(Cc2ccc([N+](=O)[O-])cc2)c(=O)n1Cc1ccc([N+](=O)[O-])cc1 [Compound P25, 5-bromo-1,3-bis-(4-nitro-benzyl)-1H-pyrimidine-2,4-dione] | Active - +2
25 | CSCc1c[nH]c(=O)[nH]c1=O [Compound P31, 5-methylsulfanylmethyl-1H-pyrimidine-2,4-dione] | Minimally Active
26 | O=c1[nH]cc(I)c(=O)[nH]1 [Compound P6, 5-iodo-1H-pyrimidine-2,4-dione] | Active - +1
27 | CC(C)n1cc(Br)c(=O)[nH]c1=O [Compound P21, 5-bromo-1-isopropyl-1H-pyrimidine-2,4-dione] | Active - +1
28 | O=C(O)c1cc(=O)[nH]c(=O)[nH]1 [Compound P11, 2,6-dioxo-1,2,3,6-tetrahydro-pyrimidine-4-carboxylic acid] | Active - +2
29 | O=c1ccn(Cc2ccccc2)c(=O)[nH]1 [Compound P26, 1-benzyl-1H-pyrimidine-2,4-dione] | Active - +2
30 | Cn1ccc(=O)n(C)c1=O [Compound P35, 1,3-dimethyl-1H-pyrimidine-2,4-dione] | Active +3
31 | O=c1[nH]c(=O)n(Cc2ccccc2)cc1I [Compound P32, 1-benzyl-5-iodo-1H-pyrimidine-2,4-dione] | Active +1
32 | Cc1cc(=O)[nH]c(=O)n1Cc1ccccc1 [Compound P27, 1-benzyl-6-methyl-1H-pyrimidine-2,4-dione] | Active - +2
33 | Cc1[nH]c(=O)[nH]c(=O)c1C [Compound P14, 5,6-dimethyl-1H-pyrimidine-2,4-dione] | Active - +2
34 | Cc1cn(C2CC(O)C(CO)O2)c(=O)[nH]c1=O (stereo not drawn) [Compound P19, 1-(4-hydroxy-5-hydroxymethyl-tetrahydro-furan-2-yl)-5-methyl-1H-pyrimidine-2,4-dione] | Minimally Active
35 | O=c1ccn(CCCO)c(=O)n1CCCO [Compound P37, 1,3-bis-(3-hydroxy-propyl)-1H-pyrimidine-2,4-dione] | Active +2
36 | CC1CC(=O)N(N)C(=O)N1Cc1ccccc1 (stereo not drawn) [Compound P39, 3-amino-1-benzyl-6-methyl-dihydro-pyrimidine-2,4-dione] | Active +3
